Laboratory results as given in ChEMBL document CHEMBL4725288, “Modulation of TRPV4 and BKCa for treatment of brain diseases” (Bioorg Med Chem, 2020).

Assays:
[1] = target: Transient receptor potential cation channel subfamily V member 4 (Homo sapiens, UniProt Q9HBA0); experiment: Antagonist activity at human TRPV4
[2] = Inhibition of TNP-ADP binding to SERCA (unknown origin) by UV dual-wavelength spectrophotometer; parameters: species or system Homo sapiens

Sequence of Transient receptor potential cation channel subfamily V member 4 (Q9HBA0 whole entry): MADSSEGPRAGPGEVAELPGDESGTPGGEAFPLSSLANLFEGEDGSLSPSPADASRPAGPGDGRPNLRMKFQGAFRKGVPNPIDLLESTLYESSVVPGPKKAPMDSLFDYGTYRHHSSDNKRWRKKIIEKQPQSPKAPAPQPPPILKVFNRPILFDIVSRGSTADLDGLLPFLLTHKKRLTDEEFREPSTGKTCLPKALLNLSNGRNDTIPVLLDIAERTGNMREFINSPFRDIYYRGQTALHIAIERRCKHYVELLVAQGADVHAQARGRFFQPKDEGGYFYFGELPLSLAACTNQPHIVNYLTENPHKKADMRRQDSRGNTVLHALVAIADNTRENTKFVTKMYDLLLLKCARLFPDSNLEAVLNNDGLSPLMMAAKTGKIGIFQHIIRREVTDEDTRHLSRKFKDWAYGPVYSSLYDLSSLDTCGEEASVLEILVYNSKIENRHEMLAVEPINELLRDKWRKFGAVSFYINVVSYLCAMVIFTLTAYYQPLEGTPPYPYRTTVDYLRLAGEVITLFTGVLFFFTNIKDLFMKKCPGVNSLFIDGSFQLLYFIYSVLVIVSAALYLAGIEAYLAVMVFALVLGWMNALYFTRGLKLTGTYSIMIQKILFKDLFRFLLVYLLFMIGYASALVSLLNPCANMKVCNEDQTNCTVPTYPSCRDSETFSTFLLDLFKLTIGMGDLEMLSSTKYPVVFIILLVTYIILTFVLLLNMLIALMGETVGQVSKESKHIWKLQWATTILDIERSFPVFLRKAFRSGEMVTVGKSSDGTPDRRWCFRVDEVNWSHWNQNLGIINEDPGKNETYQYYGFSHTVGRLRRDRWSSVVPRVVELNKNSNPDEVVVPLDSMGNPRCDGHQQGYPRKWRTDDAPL

Row | Structure (SMILES) | IC50 [1] | IC50 [2]
1 | Cc1c(C(=O)Nc2cccc(C(F)(F)F)c2)cc(-c2ccccc2)n1CCCN1CCOCC1 | 0.018 µM | –
2 | CC(C)(O)[C@H]1O[C@H]2CC[C@@]3(C)[C@@](O)(CC[C@H]4Cc5c([nH]c6ccccc56)[C@@]43C)C2=CC1=O [PAXILLINE] | – | 5 µM
